Values quoted from earlier work, collected in EP1707213A1, “Herbal composition for the treatment of cutaneous Erythema” (Kern, Elisabeth, priority 2005, dated 2006).
Where two headings read alike, the source gives them in different places.

Assays:
[1] = system: durch Doxil induziertes Hand-Fuß-Syndrom; conditions: patients with hand-foot syndrome of Grade 2 bis 4 under Doxil

## O=c1[nH]cc(F)c(=O)[nH]1 [Zusammensetzung 5-FU, 5-Fluorouracil]
Patienten; use as cytostatic
  palmoplantare Erythrodysästhesie als häufigste Nebenwirkung: 50 % der Patienten

## CCCCCOC(=O)Nc1nc(=O)n([C@@H]2O[C@H](C)[C@@H](O)[C@H]2O)cc1F [Capecitabin, N4-Pentyloxycarbonyl-5'desoxy-Fluorocytidin]
Patienten; in vivo
  palmoplantare Erythrodysästhesie als häufigste Nebenwirkung: 50 % der Patienten

## C[C@@H]1C[C@H]2[C@@H]3CCC4=CC(=O)C=C[C@]4(C)[C@@]3(F)[C@@H](O)C[C@]2(C)[C@@]1(O)C(=O)CO [Dexamethason]
[1]
  Fortführung der Chemotherapie mit der ursprünglichen Dosierung von Doxil: möglich
